# Tests used:
# hardwood trees [1] = assay: Growth Response for Pre-Plant Treatments (Example 7), summary over treated species; type: in vivo; details: pre-plant (Table 7); all treated species, with the exceptions of chestnut oak and Chinese chestnut
# Experimental: (§1) Hybrid poplar seedlings were planted as stem cuttings.
# (§2) Stem volume index is calculated as D^2H where D=groundline stem diameter and H=total height.
# hardwood trees [2] = assay: Growth Response for Post-Plant Treatments (Example 8), summary over treated species; type: in vivo; details: post-plant (Table 8); all treated species except for Chinese chestnut
# Experimental: as §1, §2
smiles,measurement,setting,value
"Cc1ccc2c(c1)[C@H](Nc1nc(N)nc(C(C)F)n1)[C@@H](C)C2 (mixture of isomers) [indaziflam, N2-[(1R,2S)-2,3-dihydro-2,6-dimethyl-1H-inden-1-yl]-6-[(1RS)-1-fluoroethyl]-1,3,5-triazine-2,4-diamine]",growth response,hardwood trees [1],positive growth response
same,growth response,hardwood trees [2],positive growth response
